Test results reported in the NIST ThermoML archive (doi:10.1021/acs.jced.5b00694).
± gives the expanded uncertainty stated by the source.

What was measured:
[1] = xn = mol fraction of the nth substance listed; details: 101 kPa, Liquid; for viscosity: 297.85 K, Cone and plate viscometry; for mass density: 298.15 K, Vibrating tube method
[2] = 297.85 K; 101 kPa; Liquid; Cone and plate viscometry

CCCC[P+](CCCC)(CCCC)CCCC.O=C[O-] [tetrabutylphosphonium formate] + O
viscosity ([1]; x2 = 0.25): 356 ± 43 mPa·s
viscosity ([1]; x2 = 0.5): 146 ± 16 mPa·s
viscosity ([1]; x2 = 0.6): 97 ± 10 mPa·s
viscosity ([1]; x2 = 0.74): 48 ± 4.9 mPa·s
viscosity ([1]; x2 = 0.8): 35.3 ± 3.6 mPa·s
viscosity ([1]; x2 = 0.91): 14.4 ± 1.4 mPa·s
mass density ([1]; x2 = 0.25): 944 ± 1.2 kg/m3
mass density ([1]; x2 = 0.32): 945.2 ± 1.1 kg/m3
mass density ([1]; x2 = 0.5): 948 ± 1.2 kg/m3
mass density ([1]; x2 = 0.6): 950.4 ± 1.4 kg/m3
mass density ([1]; x2 = 0.74): 955.5 ± 1 kg/m3
mass density ([1]; x2 = 0.8): 959.2 ± 0.9 kg/m3
mass density ([1]; x2 = 0.91): 974.1 ± 0.7 kg/m3

O [water]
viscosity [2]: 0.9 ± 0.02 mPa·s

O [water] + CCCC[P+](CCCC)(CCCC)CCCC.O=C[O-]
viscosity ([1]; x1 = 1): 0.9 ± 0.09 mPa·s
mass density ([1]; x1 = 1): 996.8 ± 0.6 kg/m3
